One compound from US20070111929A1, “Methods for the treatment of anxiety and for identification of anxiolytic agents” (Wyeth, priority 2005, published 2007) can be followed below.

One assay deals with T1, oxytocin receptor (Mus musculus, UniProt P97926).
T1 construct: from tissue; host or cells: whole living Swiss Webster mouse (in vivo behavioural test)
T1 sequence (P97926 1-388): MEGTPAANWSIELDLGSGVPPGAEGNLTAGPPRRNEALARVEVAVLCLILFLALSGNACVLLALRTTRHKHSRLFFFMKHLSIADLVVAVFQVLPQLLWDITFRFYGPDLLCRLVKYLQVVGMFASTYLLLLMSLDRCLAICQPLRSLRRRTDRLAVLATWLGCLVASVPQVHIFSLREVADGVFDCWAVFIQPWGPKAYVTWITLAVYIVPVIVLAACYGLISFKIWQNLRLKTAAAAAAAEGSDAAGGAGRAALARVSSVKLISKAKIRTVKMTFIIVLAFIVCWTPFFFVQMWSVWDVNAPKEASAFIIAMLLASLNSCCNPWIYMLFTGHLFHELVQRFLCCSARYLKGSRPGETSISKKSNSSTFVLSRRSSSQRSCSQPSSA
As to the kind of experiment: mouse 4-plate model, AT4 with the oxytocin receptor antagonist WAY-162720 (Example 2). Format: in vivo. The following applies: AT4 3 mg/kg alone, acute, 30 min before test.

The target in the next assay is T2, AT4 receptor (Mus musculus, UniProt Q8C129).
T2 construct: from tissue; host or cells: whole living Swiss Webster mouse (in vivo behavioural test)
T2 sequence (Q8C129 1-1025): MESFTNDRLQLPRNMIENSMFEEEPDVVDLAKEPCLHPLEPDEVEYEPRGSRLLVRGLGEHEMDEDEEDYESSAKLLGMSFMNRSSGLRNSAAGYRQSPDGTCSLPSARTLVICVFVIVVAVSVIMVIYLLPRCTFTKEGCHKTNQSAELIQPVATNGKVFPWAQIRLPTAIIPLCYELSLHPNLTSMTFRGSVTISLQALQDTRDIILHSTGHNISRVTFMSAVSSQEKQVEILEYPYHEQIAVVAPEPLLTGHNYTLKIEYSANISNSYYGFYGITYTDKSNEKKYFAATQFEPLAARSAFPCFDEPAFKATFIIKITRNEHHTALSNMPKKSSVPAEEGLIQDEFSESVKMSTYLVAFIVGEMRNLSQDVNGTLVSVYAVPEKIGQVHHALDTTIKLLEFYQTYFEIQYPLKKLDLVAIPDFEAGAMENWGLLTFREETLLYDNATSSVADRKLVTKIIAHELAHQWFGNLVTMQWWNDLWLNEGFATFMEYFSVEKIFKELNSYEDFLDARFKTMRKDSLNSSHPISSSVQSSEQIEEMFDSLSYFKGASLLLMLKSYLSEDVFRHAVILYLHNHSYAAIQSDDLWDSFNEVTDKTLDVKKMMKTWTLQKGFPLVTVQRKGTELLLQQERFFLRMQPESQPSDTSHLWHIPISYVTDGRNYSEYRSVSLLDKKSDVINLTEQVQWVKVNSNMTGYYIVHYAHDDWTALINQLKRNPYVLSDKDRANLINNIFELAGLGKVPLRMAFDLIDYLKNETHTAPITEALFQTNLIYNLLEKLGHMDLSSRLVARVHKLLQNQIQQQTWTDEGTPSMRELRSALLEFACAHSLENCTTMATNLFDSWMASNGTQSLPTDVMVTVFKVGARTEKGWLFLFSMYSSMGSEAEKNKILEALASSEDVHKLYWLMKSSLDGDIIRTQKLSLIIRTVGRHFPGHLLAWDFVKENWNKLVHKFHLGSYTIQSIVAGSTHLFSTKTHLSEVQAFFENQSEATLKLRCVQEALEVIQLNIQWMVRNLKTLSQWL
As to the kind of experiment: mouse 4-plate model of anxiety, AT4 alone (Example 1). It counts as in vivo. The following applies: acute; for number of punished crossings compared to vehicle: subcutaneous, 30 min before test, male Swiss Webster mice. The protocol:
Male Swiss Webster mice weighing 18-24 g were used in the 4 plate studies. Animals were housed in groups of 15 in an AAALAC-accredited facility (Wyeth Research, Princeton, N.J.) with food and water available ad libitum. Animals were maintained on a 12-hour light/dark cycle (lights on at 0600) with all studies performed during the light phase. On the day of experiments, mice were injected with AT4 (0, 1, 3 and 10 mg/kg) 30 minutes before the start of the study. Initially, mice were individually placed in a plexiglass cage (18×25×16 cm) with a floor consisting of four rectangular metal plates (8×11 cm), which are wired to a shock generator (Med Associates). In each experiment, mice were placed into the chamber and given an 18-sec habituation period, which was followed by a 1-min test session. After the habituation period, an electric shock (0.8 mA) was delivered for 3.0 sec when mice crossed from one plate to another. The crossing from one plate to the next is referred to as a “punished crossing.” The number of punished crossings during a 1-min test period was recorded by a computer. The mean number of punished crossings for each group was expressed as a percentage of the value observed in the control animals. Data were subjected to an overall one-way analysis of variance (ANOVA) and post-hoc comparisons were made by a contrast using least squares. Significant differences in treatment occurred when p<0.05 compared to vehicle.

Experimental for oxytocin receptor: Male Swiss Webster mice weighing 18-24 g were used in the 4 plate studies. […] Animals were maintained on a 12-hour light/dark cycle (lights on at 0600) with all studies performed during the light phase. On the day of experiments, mice were injected with AT4 (0, 1, 3 and 10 mg/kg) 30 minutes before the start of the study. Initially, mice were individually placed in a plexiglass cage (18×25×16 cm) with a floor consisting of four rectangular metal plates (8×11 cm), which are wired to a shock generator (Med Associates). In each experiment, mice were placed into the chamber and given an 18-sec habituation period, which was followed by a 1-min test session. After the habituation period, an electric shock (0.8 mA) was delivered for 3.0 sec when mice crossed from one plate to another. The crossing from one plate to the next is referred to as a “punished crossing.” The number of punished crossings during a 1-min test period was recorded by a computer. […] Data were subjected to an overall one-way analysis of variance (ANOVA) and post-hoc comparisons were made by a contrast using least squares. Significant differences in treatment occurred when p<0.05 compared to vehicle.
For these studies, the same 4-plate procedures were used as described in Example 1, above. […] A 3-sec time followed the delivery of each shock and a computer recorded the number of punished crossings during a 1-min test period. […]

Take `CC[C@H](C)[C@H](NC(=O)[C@H](Cc1ccc(O)cc1)NC(=O)[C@@H](N)C(C)C)C(=O)N[C@@H](Cc1cnc[nH]1)C(=O)N1CCC[C@H]1C(=O)N[C@@H](Cc1ccccc1)C(=O)O` [AT4, Val-Tyr-Ile-His-Pro-Phe]: the “number of punished crossings compared to vehicle control” value at oxytocin receptor was “increased”. Also, the “number of punished crossings compared to vehicle” value on AT4 receptor (AT4 3 mg/kg) and on AT4 receptor (AT4 10 mg/kg) was “significantly (p<0.05) increased” throughout. In addition, on AT4 receptor (AT4 1, 3 and 10 mg/kg subcutaneous, FIG. 1), the “anxiolytic-like effect in the 4-plate model, dose dependence” value was “dose-dependent”.
